Test results from ChEMBL document CHEMBL3991601, “The target landscape of clinical kinase drugs” (Science, 2017).
Active and inactive are the calls of the source.

What was measured:
[1] = target: T1, Glycogen phosphorylase, liver form (Homo sapiens, UniProt P06737); type: subcellular, K-562, COLO 205, SK-N-BE(2) and MV-4-11, Cell lysate; conditions: read-out: Kd apparent
T1 sequence (P06737 whole entry): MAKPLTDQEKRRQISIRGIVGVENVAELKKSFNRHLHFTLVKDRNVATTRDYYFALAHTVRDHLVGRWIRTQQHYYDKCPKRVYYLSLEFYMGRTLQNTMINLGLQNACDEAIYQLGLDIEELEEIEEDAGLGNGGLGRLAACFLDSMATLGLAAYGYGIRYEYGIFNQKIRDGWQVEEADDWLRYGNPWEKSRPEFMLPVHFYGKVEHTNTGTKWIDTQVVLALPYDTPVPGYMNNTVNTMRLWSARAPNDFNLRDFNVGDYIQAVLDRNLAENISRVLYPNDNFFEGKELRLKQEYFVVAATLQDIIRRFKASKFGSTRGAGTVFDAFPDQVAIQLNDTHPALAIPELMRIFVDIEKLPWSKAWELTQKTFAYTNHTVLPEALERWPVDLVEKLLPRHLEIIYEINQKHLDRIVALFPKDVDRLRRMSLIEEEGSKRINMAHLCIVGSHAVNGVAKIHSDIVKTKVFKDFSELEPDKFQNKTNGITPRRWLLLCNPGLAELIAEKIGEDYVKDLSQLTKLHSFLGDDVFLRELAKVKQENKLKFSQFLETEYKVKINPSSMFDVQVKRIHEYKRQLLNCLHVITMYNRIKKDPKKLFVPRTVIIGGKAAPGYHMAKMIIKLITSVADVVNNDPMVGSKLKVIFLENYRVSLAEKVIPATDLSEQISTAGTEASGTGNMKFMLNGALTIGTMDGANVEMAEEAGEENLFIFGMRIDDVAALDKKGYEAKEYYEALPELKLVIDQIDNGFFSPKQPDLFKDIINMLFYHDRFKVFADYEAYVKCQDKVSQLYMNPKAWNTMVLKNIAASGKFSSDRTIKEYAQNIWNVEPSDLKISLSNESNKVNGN

[2] = target: Casein kinase I isoform epsilon (Homo sapiens, UniProt P49674)
[3] = target: T2, Serine/threonine-protein kinase TAO1 (Homo sapiens, UniProt Q7L7X3)
T2 sequence (Q7L7X3 whole entry): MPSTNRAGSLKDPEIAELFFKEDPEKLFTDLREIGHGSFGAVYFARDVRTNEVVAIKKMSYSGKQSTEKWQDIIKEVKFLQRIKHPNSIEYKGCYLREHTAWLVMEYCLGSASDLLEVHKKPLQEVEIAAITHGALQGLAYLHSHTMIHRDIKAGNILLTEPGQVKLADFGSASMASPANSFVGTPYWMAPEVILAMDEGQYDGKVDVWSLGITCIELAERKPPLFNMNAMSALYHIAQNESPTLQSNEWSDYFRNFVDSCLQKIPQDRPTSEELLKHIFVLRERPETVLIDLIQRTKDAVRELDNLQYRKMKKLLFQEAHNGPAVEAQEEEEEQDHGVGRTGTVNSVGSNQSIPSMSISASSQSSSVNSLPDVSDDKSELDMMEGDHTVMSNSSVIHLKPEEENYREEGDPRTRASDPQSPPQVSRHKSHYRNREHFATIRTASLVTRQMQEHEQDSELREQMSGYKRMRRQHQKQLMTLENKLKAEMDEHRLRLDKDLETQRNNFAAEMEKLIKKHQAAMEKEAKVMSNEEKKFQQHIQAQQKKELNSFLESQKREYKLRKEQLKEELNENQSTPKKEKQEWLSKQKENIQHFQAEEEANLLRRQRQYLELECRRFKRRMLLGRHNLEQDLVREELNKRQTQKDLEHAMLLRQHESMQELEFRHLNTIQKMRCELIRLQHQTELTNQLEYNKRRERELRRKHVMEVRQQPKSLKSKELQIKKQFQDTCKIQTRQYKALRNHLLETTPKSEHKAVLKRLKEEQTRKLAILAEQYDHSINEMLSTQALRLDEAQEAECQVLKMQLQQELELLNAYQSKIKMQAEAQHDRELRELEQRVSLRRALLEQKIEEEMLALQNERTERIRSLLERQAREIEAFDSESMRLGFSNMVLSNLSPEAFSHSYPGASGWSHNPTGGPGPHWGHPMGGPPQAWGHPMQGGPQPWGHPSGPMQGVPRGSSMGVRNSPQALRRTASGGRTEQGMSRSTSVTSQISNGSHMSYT

[4] = target: T3, NUAK family SNF1-like kinase 2 (Homo sapiens, UniProt Q9H093)
T3 sequence (Q9H093 whole entry): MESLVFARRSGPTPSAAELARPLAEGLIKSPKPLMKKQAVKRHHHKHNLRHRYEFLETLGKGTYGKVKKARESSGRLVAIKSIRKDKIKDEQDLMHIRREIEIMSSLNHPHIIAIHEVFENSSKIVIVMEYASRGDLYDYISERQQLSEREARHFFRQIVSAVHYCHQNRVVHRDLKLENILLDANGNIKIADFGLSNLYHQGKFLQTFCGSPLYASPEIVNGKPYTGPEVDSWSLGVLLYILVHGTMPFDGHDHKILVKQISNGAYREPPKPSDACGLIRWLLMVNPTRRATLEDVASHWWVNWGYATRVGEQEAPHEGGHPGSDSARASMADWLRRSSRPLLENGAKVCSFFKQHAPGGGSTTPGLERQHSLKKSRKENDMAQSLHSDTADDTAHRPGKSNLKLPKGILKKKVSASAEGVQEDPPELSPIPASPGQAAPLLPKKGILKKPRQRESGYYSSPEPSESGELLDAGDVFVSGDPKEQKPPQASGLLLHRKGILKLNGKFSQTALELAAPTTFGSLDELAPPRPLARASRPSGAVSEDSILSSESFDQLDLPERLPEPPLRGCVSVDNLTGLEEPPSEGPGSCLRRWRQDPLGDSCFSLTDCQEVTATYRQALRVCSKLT

Measured: Kd
Note: in the data inactive means no Kd found up to 30 µM.

Chain of Casein kinase I isoform epsilon (P49674 whole entry, canonical isoform): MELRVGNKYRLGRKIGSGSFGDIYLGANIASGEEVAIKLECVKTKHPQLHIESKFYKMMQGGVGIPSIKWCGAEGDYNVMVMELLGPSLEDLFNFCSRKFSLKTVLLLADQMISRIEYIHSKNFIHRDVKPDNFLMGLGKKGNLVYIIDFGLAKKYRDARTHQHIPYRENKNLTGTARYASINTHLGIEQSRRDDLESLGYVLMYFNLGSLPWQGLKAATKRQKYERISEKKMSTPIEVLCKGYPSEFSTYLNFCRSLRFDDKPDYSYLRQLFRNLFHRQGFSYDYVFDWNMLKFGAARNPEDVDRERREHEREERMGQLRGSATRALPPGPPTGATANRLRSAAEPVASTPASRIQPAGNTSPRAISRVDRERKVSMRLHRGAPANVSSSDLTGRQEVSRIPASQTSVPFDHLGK

Cc1ccc(-n2nc(C(C)(C)C)cc2NC(=O)NCc2cc(F)ccc2Oc2ccc3c(cnn3CCO)c2)cc1 [PEXMETINIB]
inactive: [1] > 30 µM | [2] > 30 µM | [3] > 30 µM | [4] > 30 µM
